These results are taken from ChEMBL document CHEMBL2413045, “Synthesis, self-aggregation and biological properties of alkylphosphocholine and alkylphosphohomocholine derivatives of cetyltrimethylammonium bromide, cetylpyridinium bromide, benzalkonium bromide (C16) and benzethonium chloride” (Eur J Med Chem, 2013).

Assay [1] concerns Acanthamoeba lugdunensis. The assay is described as follows: Amoebicidal activity against Acanthamoeba lugdunensis clinical isolate AcaVNAK02 assessed as minimum trophocidal concentration after 48 hrs by trypan blue exclusion assay. It is filed as functional. The settings on record: clinical isolate AcaVNAK02, 48 h.
A further assay relates to MDA-MB-231. The experiment in a line: Cytotoxicity against human MDA-MB-231 cells after 72 hrs by MTT assay. It is filed as functional, cell-based. As to conditions: MDA-MB-231, 72 h. Background: Tetrazolium assays rely on reduction of a dye to a coloured formazan, in cell work by metabolically active cells.
The test system of the next assay is HeLa. The assay is described as follows: Cytotoxicity against human HeLa cells after 72 hrs by MTT assay. It is filed as functional, cell-based.
In assay [2] the test system is MCF7. The assay is described as follows: Cytotoxicity against human MCF7 cells after 72 hrs by MTT assay. The class given is functional, cell-based. As to conditions: MCF7, 72 h.
Assay [3] has as its system Candida albicans. The experiment in a line: microbe, parasite or virus in culture. It is filed as functional. The settings on record: ATCC 60193, 48 h.
Description: (§1) Antimycotic activity against Candida albicans ATCC 60193 after 48 hrs by NCCLS M-27 microdilution assay
Assay [4] concerns Acanthamoeba quina. The assay is described as follows: Amoebicidal activity against Acanthamoeba quina clinical isolate AcaVNAK03 assessed as minimum trophocidal concentration after 48 hrs by trypan blue exclusion assay. The settings on record: clinical isolate AcaVNAK03, 48 h. The class given is functional.
Assay [5] concerns A549. The assay is described as follows: Cytotoxicity against human A549 cells after 72 hrs by MTT assay. The class given is functional, cell-based. As to conditions: A549, 72 h.
The subject of another assay is HUVEC. The assay is described as follows: Cytotoxicity against HUVEC after 72 hrs by MTT assay. It is filed as ADME, cell-based. As to conditions: Homo sapiens.
A further assay has as its system CCRF-CEM. The experiment in a line: Cytotoxicity against human CCRF-CEM cells after 72 hrs by MTT assay. It is filed as functional, cell-based.
For assay [6], the system named is A549. The experiment in a line: Selectivity index, ratio of IC50 for HUVEC to IC50 for human A549 cells.
Assay [7] relates to MCF7. The assay is described as follows: Selectivity index, ratio of IC50 for HUVEC to IC50 for human MCF7 cells.
Assay [8] has as its system Candida albicans. The settings on record: ATCC 60193.
Description: as §1
The test system of assay [9] is Acanthamoeba quina. As to conditions: clinical isolate AcaVNAK03.
Assay [10] has as its system Acanthamoeba lugdunensis. As to conditions: clinical isolate AcaVNAK02.
The subject of assay [11] is Candida albicans. The assay is described as follows: Ratio of cetylpyridinium bromide MIC to compound MIC for Candida albicans ATCC 60193. The class given is functional.

≈ marks a conversion by molar mass, not a printed value.

Turning to `CC(C)(C)CC(C)(C)c1ccc(OCCOP(=O)([O-])OCC[N+](C)(C)Cc2ccccc2)cc1`, the MTC in the assay on Acanthamoeba lugdunensis [1] was 250 µM; in the assay on Acanthamoeba quina [4], 500 µM. The IC50 in the assay with MDA-MB-231, in the assay with HeLa, in the assay with MCF7 [2], in the assay with A549 [5], in the assay with HUVEC and in the assay on CCRF-CEM was more than 100 µM throughout. The compound also gave an MIC with Candida albicans [3] of more than 100 µM.
In the case of `CCCCCCCCCCCCCCCCOP(=O)([O-])OCC[N+](C)(C)Cc1ccccc1`, the MTC with Acanthamoeba lugdunensis [1] and with Acanthamoeba quina [4] was more than 500 µM each time. Also, the IC50 (commonly the concentration at which inhibition is half-maximal) in the assay on MDA-MB-231 is 44.3 µM; with HeLa, 55.7 µM; in the assay on MCF7 [2], 76 µM; in the assay with A549 [5] it was 73.2 µM; with HUVEC, more than 100 µM; in the assay with CCRF-CEM, 13.8 µM. The MIC against Candida albicans [3] stood at 8.1 µM (≈ 3.92 µg/mL).
In the case of `CCCCCCCCCCCCCCCCOP(=O)([O-])OCCC[N+](C)(C)Cc1ccccc1`, the figures for the MTC with Acanthamoeba lugdunensis [1] and in the assay on Acanthamoeba quina [4] were 125 µM and 250 µM, respectively. Moreover, the IC50 in the assay with MDA-MB-231 is 43.7 µM; in the assay on HeLa, 62.1 µM; in the assay on MCF7 [2], 57.6 µM; in the assay on A549 [5], 57.6 µM; in the assay with HUVEC, more than 100 µM; in the assay with CCRF-CEM it was 62.2 µM. This compound also returned an MIC in the assay with Candida albicans [3] of 7.9 µM (≈ 3.93 µg/mL).
`CCCCCCCCCCCCCCCCOP(=O)([O-])OCC[N+](C)(C)C` [MILTEFOSINE]: the figures for the MTC in the assay with Acanthamoeba lugdunensis [1] and in the assay with Acanthamoeba quina [4] were 250 µM and 125 µM, respectively. Also, the IC50 with MDA-MB-231 was 34.8 µM; in the assay on HeLa, 74.4 µM; with MCF7 [2] it was 18.9 µM; with A549 [5], 8.6 µM; with HUVEC, more than 100 µM; with CCRF-CEM, 20.7 µM. Moreover, the MIC in the assay on Candida albicans [3] worked out at 2.2 µM (≈ 0.897 µg/mL). The “Ratio IC50” value in the assay with A549 [6] was more than 10.
As to `CCCCCCCCCCCCCCCCOP(=O)([O-])OCC[n+]1ccccc1`, the MTC with Acanthamoeba lugdunensis [1] and in the assay with Acanthamoeba quina [4] was 62.5 µM each time. Also, the IC50 was 45.8 µM in the assay on MDA-MB-231; 52.1 µM with HeLa; 8.1 µM with MCF7 [2]; 9.9 µM with A549 [5]; 94 µM with HUVEC; 22.9 µM in the assay with CCRF-CEM. Besides, the “Ratio IC50” value in the assay with MCF7 [7] is reported as more than 10. In the assay on Candida albicans [3], this compound yielded an MIC of 4 µM (≈ 1.71 µg/mL).
For the compound Cetyltrimethylammonium bromide, the results for the MIC against Candida albicans [8], against Acanthamoeba quina [9] and in the assay on Acanthamoeba lugdunensis [10] were 22 µM, 15.6 µM and 15.6 µM, respectively.
Take `CCCCCCCCCCCCCCCCOP(=O)([O-])OCCC[N+](C)(C)C`: the MTC was 125 µM in the assay with Acanthamoeba lugdunensis [1] and 62.5 µM with Acanthamoeba quina [4]. Besides, the IC50 in the assay on MDA-MB-231 is 61.7 µM; in the assay with HeLa, 84.4 µM; in the assay with MCF7 [2], 45.2 µM; in the assay with A549 [5], 41.5 µM; in the assay on HUVEC, more than 100 µM; in the assay on CCRF-CEM it was 6.2 µM. The same compound returned an MIC against Candida albicans [3] of 18.2 µM (≈ 7.67 µg/mL).
As for `CCCCCCCCCCCCCCCCOP(=O)([O-])OCCC[n+]1ccccc1`, the MTC was 250 µM in the assay on Acanthamoeba lugdunensis [1] and 15.6 µM with Acanthamoeba quina [4]. Besides, the IC50 in the assay with MDA-MB-231 was 59.9 µM; with HeLa, 74.7 µM; in the assay on MCF7 [2] it was 50.4 µM; in the assay on A549 [5], 61.6 µM; in the assay with HUVEC, more than 100 µM; in the assay on CCRF-CEM, 34.6 µM. In the assay with Candida albicans [3], the MIC turned out to be 2.1 µM (≈ 0.927 µg/mL).
Regarding `CC(C)(C)CC(C)(C)c1ccc(OCCOP(=O)([O-])OCCC[N+](C)(C)Cc2ccccc2)cc1`, the MTC worked out at 250 µM in the assay with Acanthamoeba lugdunensis [1] and 125 µM in the assay with Acanthamoeba quina [4]. The IC50 in the assay on MDA-MB-231, with HeLa, with MCF7 [2], with A549 [5], with HUVEC and with CCRF-CEM was more than 100 µM each time. The compound also displayed an MIC with Candida albicans [3] of more than 100 µM.
As to `CCCCCCCCCCCCCCCC[N+](C)(C)Cc1ccccc1.[Br-]`, the MTC in the assay with Acanthamoeba lugdunensis [1] and in the assay on Acanthamoeba quina [4] was 15.6 µM each time. The Ratio in the assay on Candida albicans [11] turned out to be 2. In addition, the IC50 was 3.5 µM in the assay with MDA-MB-231; 2.8 µM with HeLa; 1 µM in the assay with MCF7 [2]; 0.63 µM with A549 [5]; 7.5 µM in the assay on HUVEC; 0.9 µM in the assay on CCRF-CEM. This compound also came in with an MIC in the assay on Candida albicans [3] of 4.5 µM. Also, the “Ratio IC50” value in the assay with A549 [6] is reported as more than 10.
